Square brackets hold non-standard residues; d marks the D form. Ends that are not written are not given here. Oic = O=C(O)[C@@H]1C[C@@H]2CCCC[C@@H]2N1; Tic = O=C(O)[C@@H]1Cc2ccccc2CN1
Molecular target: T1, GzmA in lysate of NK‐92 cells (Homo sapiens, UniProt P12544)
T1 construct: host or cells: NK-92
T1 sequence (P12544 29-262): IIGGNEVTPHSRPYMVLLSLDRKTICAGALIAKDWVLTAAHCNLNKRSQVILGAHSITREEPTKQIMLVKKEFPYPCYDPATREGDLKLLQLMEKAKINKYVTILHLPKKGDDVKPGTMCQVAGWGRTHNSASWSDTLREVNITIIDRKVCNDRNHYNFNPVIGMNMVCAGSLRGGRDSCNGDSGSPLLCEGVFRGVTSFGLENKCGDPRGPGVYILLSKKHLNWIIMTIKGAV
Experiment: Labeling of GzmA in NK-92 cell lysate
Assay type: biochemical
Settings: 1 mg/mL lysate, various probe concentrations, 1 h, 37 °C, in-gel fluorescence
Procedure: Figure 4 Characterization of qABPs in native proteomes. A) Labeling of GzmA by 5 and 6 in lysates of various cell lines (1 h, 37 °C). B) Stability of 5 and 6 in buffer and cell media (11 h, 37 °C). The hydrolysis of probes was measured by monitoring the production of Cy5 fluorescence signal over time. […] C) Labeling of GzmA by probes 3 –6 in NK‐92 cells (2 h, 37 °C). D) Flow cytometry analysis of protein labeling in NK‐92 cells by 3 –5. […] E) Flow cytometry analysis of concentration‐dependent GzmA labeling in NK‐92 cells and S/N of 5 (5 μM, 2 h, 37 °C). […]
Briefly, hGzmA (50 nM) was incubated with either inhibitor 1 or 2 (200 nM), and GzmA fluorogenic substrate […] (100 µM) in 50 mM Tris, 150 mM NaCl, 0.01% Triton X-100 (pH 8) for 15 hr at 37 °C. Recorded fluorescence at Ex/Em: 380/460 nm for residual GzmA […]
Cat. No. CRL-2570) and 4T1 (ATCC Cat. No. CRL-2539) cells were cultured in RPMI supplemented with 10% fetal bovine serum (FBS), 1% penicillin/streptomycin (PS), and 2 mM L-glutamine, while HEK293T and MDA-MB-231 cells (ATCC Cat. No. HTB-26) were cultured in DMEM supplemented likewise as described above. […] The supernatant was collected, and protein concentration was measured using a Pierce BCA protein assay. […]
C. In-gel fluorescence imaging […]

| Substance | Labeling of GzmA in NK-92 lysate |
| --- | --- |
| IGNR [compound 5] | selectively labeled GzmA in a concentration‐dependent manner at low nanomolar levels |
| [Tic]G[Oic]R [compound 6] | selectively labeled GzmA in a concentration‐dependent manner at low nanomolar levels |
